Literature values, collected in patent publication US8309607B2, “Rapid release irbesartan-containing pharmaceutical composition” (ratiopharm GmbH, priority 2006, dated 2012).

Settings: in vivo

CCCCC1=NC2(CCCC2)C(=O)N1Cc1ccc(-c2ccccc2-c2nnn[nH]2)cc1 [Irbesartan, 2-n-butyl-4-spirocyclopentane-1-[(2′-(tetrazol-5-yl)biphenyl-4-yl)methyl]-2-imidazolin-5-one]
oral bioavailability: acceptable oral bioavailability
